The values that follow come from patent publication US9433622B2, “Pyrimidine compounds useful in the treatment of diseases mediated by IKKE and/or TBK1 mechanisms” (DOMAINEX LIMITED, priority 2013, dated 2016).

The conditions of test [1]: mice models of obesity; cited from earlier work.
Another test has as its target IKKε (Homo sapiens (Human), UniProt Q14164). Nature of the test: Lanthascreen TR-FRET kinase inhibition assay, IKKε. The format is biochemical. Put shortly: (§1)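 TR-FRET: terbium phosphospecific antibody detects phosphorylation of 400 nM fluorescein-IkBα peptide, 20 μM ATP, 20 °C, HEPES pH 7.5 with 3% DMSO. IKKε at 2 nM, 1 h reaction; TBK1 at 8 nM, 2.5 h reaction; started by kinase addition.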
For orientation: In TR-FRET formats the signal depends on donor and acceptor labels being close together.

A further test has as its target TBK1 (Homo sapiens (Human), UniProt Q9UHD2). As to the kind of experiment: Lanthascreen TR-FRET kinase inhibition assay, TBK1. The format is biochemical. As to conditions: 20 μM ATP (apparent Km), 8 nM kinase, 2.5 h. Put shortly:
as §1

The mark [2] stands for this setting: 20 μM ATP (apparent Km), 2 nM kinase, 1 h.

The structures appear in SMILES notation. Read-outs that look alike come from different tables or passages of the source.

Chain of IKKε (Q14164 whole entry): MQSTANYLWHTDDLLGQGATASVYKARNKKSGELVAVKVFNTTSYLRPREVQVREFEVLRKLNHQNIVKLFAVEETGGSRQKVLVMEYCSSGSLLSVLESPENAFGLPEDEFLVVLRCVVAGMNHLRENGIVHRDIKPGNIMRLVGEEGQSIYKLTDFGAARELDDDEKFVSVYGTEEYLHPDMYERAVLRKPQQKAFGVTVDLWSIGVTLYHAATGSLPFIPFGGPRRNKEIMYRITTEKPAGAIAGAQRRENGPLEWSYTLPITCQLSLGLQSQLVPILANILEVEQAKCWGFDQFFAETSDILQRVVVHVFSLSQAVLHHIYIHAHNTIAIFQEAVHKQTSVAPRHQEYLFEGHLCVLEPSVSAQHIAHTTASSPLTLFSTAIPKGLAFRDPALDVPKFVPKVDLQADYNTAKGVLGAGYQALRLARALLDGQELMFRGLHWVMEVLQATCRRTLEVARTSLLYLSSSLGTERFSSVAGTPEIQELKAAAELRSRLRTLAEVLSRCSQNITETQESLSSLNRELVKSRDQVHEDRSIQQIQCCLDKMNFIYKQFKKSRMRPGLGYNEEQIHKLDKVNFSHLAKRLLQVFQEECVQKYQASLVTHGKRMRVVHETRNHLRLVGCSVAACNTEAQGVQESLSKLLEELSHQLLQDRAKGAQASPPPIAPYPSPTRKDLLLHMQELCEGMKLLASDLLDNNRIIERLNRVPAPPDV
Chain of TBK1 (Q9UHD2 whole entry): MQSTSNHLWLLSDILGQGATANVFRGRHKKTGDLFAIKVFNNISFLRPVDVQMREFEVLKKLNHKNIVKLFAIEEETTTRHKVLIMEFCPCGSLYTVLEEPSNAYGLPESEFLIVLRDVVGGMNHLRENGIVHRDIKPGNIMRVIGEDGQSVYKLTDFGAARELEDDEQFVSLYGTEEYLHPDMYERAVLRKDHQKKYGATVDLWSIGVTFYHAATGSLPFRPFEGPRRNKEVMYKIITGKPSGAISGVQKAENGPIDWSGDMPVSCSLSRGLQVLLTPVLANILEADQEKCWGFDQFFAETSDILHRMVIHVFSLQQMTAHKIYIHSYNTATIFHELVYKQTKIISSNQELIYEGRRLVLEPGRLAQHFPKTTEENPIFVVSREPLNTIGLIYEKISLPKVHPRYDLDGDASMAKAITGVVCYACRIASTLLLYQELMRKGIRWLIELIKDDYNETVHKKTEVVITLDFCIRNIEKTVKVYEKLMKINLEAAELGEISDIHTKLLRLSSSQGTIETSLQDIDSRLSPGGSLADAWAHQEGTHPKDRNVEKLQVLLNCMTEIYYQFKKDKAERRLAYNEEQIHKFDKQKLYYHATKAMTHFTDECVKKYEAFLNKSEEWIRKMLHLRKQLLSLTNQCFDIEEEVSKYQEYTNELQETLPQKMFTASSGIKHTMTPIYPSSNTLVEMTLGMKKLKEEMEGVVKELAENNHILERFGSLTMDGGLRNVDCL

For the compound `CC(C)c1ccc2oc3nc(N)c(C(=O)O)cc3c(=O)c2c1` [Amlexanox], in test [1], the blood glucose levels result is recorded as “lower blood glucose levels” and the weight gain result is reported as “reduce weight gain”.
On to `N#Cc1nc(-c2ccnc(Nc3ccc(OCCN4CC[C@H](F)C4)nc3)n2)ccc1N1CC[C@H](O)C1` [DMX-148, 6-(2-{6-[2-((S)-3-Fluoro-pyrrolidin-1-yl)-ethoxy]-pyridin-3-ylamino}-pyrimidin-4-yl)-3-((S)-3-hydroxy-pyrrolidin-1-yl)-pyridine-2-carbonitile], for which the IC50 on IKKε (setting [2]) and at TBK1 was < 100 nM each time.
Consider `C[C@H]1COCCN1Cc1ccc(Nc2nccc(-c3ccc(N4CC[C@H](F)C4)c(C#N)n3)n2)cn1` [DMX-149, 3-((S)-3-Fluoro-pyrrolidin-1-yl)-6-{2-[6-((S)-3-methyl-morpholin-4-ylmethyl)-pyridin-3-ylamino]-pyrimidin-4-yl}-pyridine-2-carbonitrile], for which the IC50 at IKKε and on TBK1 was < 15 nM in each case.
Regarding `N#Cc1nc(-c2ccnc(Nc3ccc(CN4CC[C@H](F)C4)nc3)n2)ccc1N1CC[C@H](F)C1` [DMX-150, 3-((S)-3-Fluoro-pyrrolidin-1-yl)-6-{2-[6-((S)-3-fluoro-pyrrolidin-1-ylmethyl)-pyridin-3-ylamino]-pyrimidin-4-yl}-pyridine-2-carbonitrile], the IC50 on IKKε (setting [2]) and at TBK1 was < 15 nM each time.
As for `Cc1nccn1Cc1ccc(Nc2nccc(-c3ccc(N4CC[C@H](F)C4)c(C#N)n3)n2)cn1` [DMX-151, 3-((S)-3-Fluoro-pyrrolidin-1-yl)-6-{2-[6-(2-methyl-imidazol-1-ylmethyl)-pyridin-3-ylamino]-pyrimidin-4-yl}-pyridine-2-carbonitrile], the IC50 on IKKε (setting [2]) and on TBK1 was < 30 nM throughout.
Regarding `COCCN(C)Cc1ccc(Nc2nccc(-c3ccc(N4CC[C@H](F)C4)c(C#N)n3)n2)cn1` [DMX-152, 3-((S)-3-Fluoro-pyrrolidin-1-yl)-6-[2-(6-{[(2-methoxy-ethyl)-methyl-amino]-methyl}-pyridin-3-ylamino)-pyrimidin-4-yl]-pyridine-2-carbonitrile], the IC50 at IKKε (setting [2]) and on TBK1 was < 30 nM in each case.
Take `N#Cc1nc(-c2nc(Nc3ccc(N4CCOCC4)cc3)ncc2F)ccc1N1CC[C@H](F)C1` [DMX-153, 6-[5-Fluoro-2-(4-morpholin-4-yl-phenylamino)-pyrimidin-4-yl]-3-((S)-3-fluoro-pyrrolidin-1-yl)-pyridine-2-carbonitrile]: the IC50 on IKKε (setting [2]) and at TBK1 was < 15 nM each time.
Take `COCCN(C)c1ccc(-c2ccnc(Nc3cnn(C)c3)n2)nc1C#N` [DMX-155]: the IC50 on IKKε (setting [2]) and on TBK1 was < 1000 nM throughout.
For the compound `N#Cc1nc(-c2ccnc(Nc3ccc(CN4CCNC(=O)C4)nc3)n2)ccc1N1CC[C@H](F)C1` [DMX-156, 3-((S)-3-Fluoro-pyrrolidin-1-yl)-6-{2-[6-(3-oxo-piperazin-1-ylmethyl)-pyridin-3-ylamino]-pyrimidin-4-yl}-pyridine-2-carbonitrile], the half-inhibitory concentration (IC50) on IKKε (setting [2]) and on TBK1 was < 15 nM in each case.
As for `COCCNCc1ccc(Nc2nccc(-c3ccc(N4CC[C@H](F)C4)c(C#N)n3)n2)cn1` [DMX-157, 3-((S)-3-Fluoro-pyrrolidin-1-yl)-6-(2-{6-[(2-methoxy-ethylamino)-methyl]-pyridin-3-ylamino}-pyrimidin-4-yl)-pyridine-2-carbonitrile], the IC50 (usually the point on the concentration scale where inhibition reaches its midpoint) at IKKε (setting [2]) is < 100 nM; at TBK1, < 30 nM.
In the same order, the values of `N#Cc1cc(-c2ccnc(Nc3ccc(CN4CCOCC4)nc3)n2)cnc1N1CCC(CC(N)=O)C1` (stereo not shown) [DMX-158, 2-(1-{3-Cyano-5-[2-(6-morpholin-4-ylmethyl-pyridin-3-ylamino)-pyrimidin-4-yl]-pyridin-2-yl}-pyrrolidin-3-yl)-acetamide] are < 100 nM and < 100 nM.
Regarding `CC1CN(c2ncc(-c3ccnc(Nc4ccc(CN5CCOCC5)nc4)n3)cc2C#N)CCO1` (stereo not shown) [DMX-159, 2-(2-Methyl-morpholin-4-yl)-5-[2-(6-morpholin-4-ylmethyl-pyridin-3-ylamino)-pyrimidin-4-yl]-nicotinonitrile], the IC50 at IKKε (setting [2]) and at TBK1 was < 1000 nM each time.
On to `COCC1CCN(c2ncc(-c3ccnc(Nc4ccc(CN5CCOCC5)nc4)n3)cc2C#N)C1` (stereo not shown) [DMX-160, 2-(3-Methoxymethyl-pyrrolidin-1-yl)-5-[2-(6-morpholin-4-ylmethyl-pyridin-3-ylamino)-pyrimidin-4-yl]-nicotinonitrile], for which the values for the IC50 at IKKε (setting [2]) and at TBK1 were < 100 nM and < 1000 nM, respectively.
Taken in the same sequence, the figures for `N#Cc1cc(-c2ccnc(Nc3ccc(CN4CCOCC4)nc3)n2)cnc1N1CCC(OC(F)F)C1` (stereo not shown) [DMX-161, 2-(3-Difluoromethoxy-pyrrolidin-1-yl)-5-[2-(6-morpholin-4-ylmethyl-pyridin-3-ylamino)-pyrimidin-4-yl]-nicotinonitrile] were < 30 nM and < 100 nM.
With `N#Cc1cc(-c2ccnc(Nc3ccc(CN4CCOCC4)nc3)n2)cnc1N1CCC(CCC(N)=O)C1` (stereo not shown) [DMX-162, 3-(1-{3-Cyano-5-[2-(6-morpholin-4-ylmethyl-pyridin-3-ylamino)-pyrimidin-4-yl]-pyridin-2-yl}-pyrrolidin-3-yl)-propionamide], the figures for the half-maximal inhibitory concentration (IC50) at IKKε (setting [2]) and at TBK1 were < 30 nM and < 100 nM, respectively.
With `CN(c1ncc(-c2ccnc(Nc3ccc(CN4CCOCC4)nc3)n2)cc1C#N)C1CCOC1` (stereo not shown) [DMX-163, 2-[Methyl-(tetrahydro-furan-3-yl)-amino]-5-[2-(6-morpholin-4-ylmethyl-pyridin-3-ylamino)-pyrimidin-4-yl]-nicotinonitrile], the IC50 on IKKε (setting [2]) and at TBK1 was < 100 nM throughout.
In the case of `N#Cc1nc(-c2ccnc(Nc3ccc(CN4CCOCC4)nc3)n2)ccc1N1CCCOCC1` [DMX-164, 6-[2-(6-Morpholin-4-ylmethyl-pyridin-3-ylamino)-pyrimidin-4-yl]-3-[1,4]oxazepan-4-yl-pyridine-2-carbonitrile], the IC50 on IKKε (setting [2]) was < 30 nM; on TBK1, < 100 nM.
In the same order, the values of `N#Cc1nc(-c2ccnc(Nc3ccc(CN4CCOCC4)nc3)n2)ccc1N1CCC2(COC2)C1` [DMX-165, 6-[2-(6-Morpholin-4-ylmethyl-pyridin-3-ylamino)-pyrimidin-4-yl]-3-(2-oxa-6-aza-spiro[3.4]oct-6-yl)-pyridine-2-carbonitrile] are < 15 nM and < 30 nM.
For the compound `N#Cc1nc(-c2ccnc(Nc3ccc(NC(=O)CN4CCOCC4)nc3)n2)ccc1N1CCCOCC1` [DMX-166, N-{5-[4-(6-Cyano-5-[1,4]oxazepan-4-yl-pyridin-2-yl)-pyrimidin-2-ylamino]-pyridin-2-yl)-2-morpholin-4-yl-acetamide], the IC50 at IKKε (setting [2]) and at TBK1 was < 100 nM throughout.
With `N#Cc1nc(-c2ccnc(Nc3ccc(NC(=O)CN4CCOCC4)nc3)n2)ccc1N1CCC2(COC2)C1` [DMX-167, N-(5-{4-[6-Cyano-5-(2-oxa-6-aza-spiro[3.4]oct-6-yl)-pyridin-2-yl]-pyrimidin-2-ylamino}-pyridin-2-yl)-2-morpholin-4-yl-acetamide], the IC50 on IKKε (setting [2]) was < 30 nM; at TBK1 it was < 100 nM.
